From patent US20240189373A1, “BACTERIOPHAGE COMPOSITIONS FOR TREATING STAP[…]” (priority 2020, published 2024)

Tested on: S. aureus strains
Assay: microbe, parasite or virus in culture
Format: cell-based
Method: Grey boxes indicate lines on graph depicted in FIG. 5B. […] Vancomycin, 16 μg/mL; AP-SA02, 0.1 pg/mL.
FIG. 6A is data showing bacterial growth measured by turbidity (absorbance at 600 nm) in the presence of AP-SA02 and vancomycin in a checkerboard assay. Grey boxes show lines on graph depicted in FIG. 6B. […] Vancomycin, 2 μg/mL.
Standard therapy for subjects with a S. aureus infection includes vancomycin and daptomycin. Since subjects who receive AP-SA02 are likely to be on these therapies, the effect of AP-SA02 on these antibiotics and vice versa was assessed. Using the standard checkerboard assay, the minimum inhibitory concentration of each antimicrobial alone or in combination with each other, was used to calculate whether two antimicrobials are synergistic, antagonistic, or indifferent (Table 3).

## CN[C@H](CC(C)C)C(=O)N[C@H]1C(=O)N[C@@H](CC(N)=O)C(=O)N[C@H]2C(=O)N[C@H]3C(=O)N[C@H](C(=O)N[C@H](C(=O)O)c4cc(O)cc(O)c4-c4cc3ccc4O)[C@H](O)c3ccc(c(Cl)c3)Oc3cc2cc(c3O[C@@H]2O[C@H](CO)[C@@H](O)[C@H](O)[C@H]2O[C@H]2C[C@](C)(N)[C@H](O)[C@H](C)O2)Oc2ccc(cc2Cl)[C@H]1O [vancomycin]
Staphylococcus aureus
  MIC: > 16 µg/mL
Changed from resistant or intermediate to the sensitive range
  breakpoint for vancomycin in the presence of phage: 0.5 to 2 µg/mL
